{"source": "patent US20100056524A1", "about": "“Compound” (priority 2008, published 2010)", "data": [{"target": "T1, TBK1 (Homo sapiens, UniProt Q9UHD2)", "T1 construct": "All protein kinases were of human origin and encoded full length proteins, unless indicated otherwise; His6; made in house; host or cells: insect Sf21 cells", "T1 sequence (Q9UHD2 1-729)": "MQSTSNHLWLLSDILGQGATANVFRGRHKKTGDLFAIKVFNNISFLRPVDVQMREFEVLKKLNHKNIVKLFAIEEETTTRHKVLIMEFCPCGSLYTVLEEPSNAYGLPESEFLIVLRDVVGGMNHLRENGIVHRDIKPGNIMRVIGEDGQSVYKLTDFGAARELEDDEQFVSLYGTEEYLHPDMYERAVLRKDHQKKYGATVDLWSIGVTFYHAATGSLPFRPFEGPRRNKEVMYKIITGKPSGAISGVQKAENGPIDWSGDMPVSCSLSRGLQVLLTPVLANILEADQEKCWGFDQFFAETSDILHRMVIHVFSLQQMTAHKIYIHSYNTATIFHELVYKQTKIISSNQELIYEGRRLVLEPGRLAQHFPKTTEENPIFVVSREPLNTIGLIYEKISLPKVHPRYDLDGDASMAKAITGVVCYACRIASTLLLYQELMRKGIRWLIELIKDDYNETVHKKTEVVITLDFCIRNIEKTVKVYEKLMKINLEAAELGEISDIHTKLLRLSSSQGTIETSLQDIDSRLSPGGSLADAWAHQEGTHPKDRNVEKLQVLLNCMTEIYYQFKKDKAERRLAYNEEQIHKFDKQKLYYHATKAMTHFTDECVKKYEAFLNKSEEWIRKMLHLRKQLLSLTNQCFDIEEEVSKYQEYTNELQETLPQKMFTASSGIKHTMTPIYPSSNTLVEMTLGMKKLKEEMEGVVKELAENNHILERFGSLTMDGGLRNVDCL", "experiment": "TBK1 protein kinase assay ([γ-33P]ATP, P81 filterplates)", "type": "biochemical", "settings": "50 μM ATP; read-out: Potency (TBK1 IC50 potency score)", "procedure,_shortened": "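Human TBK1 assayed for 30 min with peptide substrate (300 μM), 50 μM [γ-33P]ATP and 10 mM magnesium acetate in 50 mM Tris/HCl pH 7.5, 0.1 mM EGTA, 0.1% 2-mercaptoethanol. Stopped with orthophosphoric acid and counted on P81 filters. IC50 from 10 compound concentrations.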", "units": {"IC50": "nM"}, "values": [{"smiles": "CN(C)[C@H]1CCN(Cc2ccc(Nc3ncc(C4CC4)c(NCCCNC(=O)C4CCC4)n3)cn2)C1", "note": "[Example 146, Cyclobutanecarboxylic acid (3-{5-cyclopropyl-2-[6-((S)-3-dimethylamino-pyrrolidin-1-ylmethyl)-pyridin-3-ylamino]-pyrimidin-4-ylamino}-propyl)-amide]", "IC50": "< 100"}, {"smiles": "CN1CCN(Cc2ccc(Nc3ncc(C4CC4)c(NCCCNC(=O)C4CCC4)n3)cn2)CC1", "note": "[Example 147, Cyclobutanecarboxylic acid (3-{5-cyclopropyl-2-[6-(4-methyl-piperazin-1-ylmethyl)-pyridin-3-ylamino]-pyrimidin-4-ylamino}-propyl)-amide]", "IC50": "< 100"}, {"smiles": "O=C(NCCCNc1nc(Nc2ccc(CN3CCC(F)(F)CC3)nc2)ncc1C1CC1)C1CCC1", "note": "[Example 148, Cyclobutanecarboxylic acid (3-{5-cyclopropyl-2-[6-(4,4-difluoro-piperidin-1-ylmethyl)-pyridin-3-ylamino]-pyrimidin-4-ylamino}-propyl)-amide]", "IC50": "< 100"}, {"smiles": "O=C(NCCCNc1nc(Nc2cncnc2)ncc1C1CC1)C1CCC1", "note": "[Example 149, Cyclobutanecarboxylic acid {3-[5-cyclopropyl-2-(pyrimidin-5-ylamino)-pyrimidin-4-ylamino]-propyl}-amide]", "IC50": "1000 to 10000"}, {"smiles": "O=C(NCCCNc1nc(Nc2ccc(N3CCCCC3)nc2)ncc1C1CC1)C1CCC1", "note": "[Example 150, Cyclobutanecarboxylic acid {3-[5-cyclopropyl-2-(3,4,5,6-tetrahydro-2H-[1,2′]bipyridinyl-5′-ylamino)-pyrimidin-4-ylamino]-propyl}-amide]", "IC50": "< 100"}, {"smiles": "O=C(NCCCNc1nc(Nc2ccc(N3CCCC3)nc2)ncc1C1CC1)C1CCC1", "note": "[Example 151, Cyclobutanecarboxylic acid {3-[5-cyclopropyl-2-(6-pyrrolidin-1-yl-pyridin-3-ylamino)-pyrimidin-4-ylamino]-propyl}-amide]", "IC50": "< 100"}, {"smiles": "O=C(NCCCNc1nc(Nc2cnc(N3CCOCC3)nc2)ncc1C1CC1)C1CCC1", "note": "[Example 152, Cyclobutanecarboxylic acid {3-[5-cyclopropyl-2-(2-morpholin-4-yl-pyrimidin-5-ylamino)-pyrimidin-4-ylamino]-propyl}-amide]", "IC50": "< 100"}, {"smiles": "Cn1cc(Nc2ncc(C3CC3)c(NCCCNC(=O)C3CCC3)n2)cn1", "note": "[Example 153, Cyclobutanecarboxylic acid {3-[5-cyclopropyl-2-(1-methyl-1H-pyrazol-4-ylamino)-pyrimidin-4-ylamino]-propyl}-amide]", "IC50": "< 100"}, {"smiles": "O=C(NCCCNc1nc(Nc2ccc(OCCN3CCOCC3)nc2)ncc1C1CC1)C1CCC1", "note": "[Example 154, Cyclobutanecarboxylic acid (3-{5-cyclopropyl-2-[6-(2-morpholin-4-yl-ethoxy)-pyridin-3-ylamino]-pyrimidin-4-ylamino}-propyl)-amide]", "IC50": "< 100"}, {"smiles": "O=C(NCCCNc1nc(Nc2cnn(CCN3CCOCC3)c2)ncc1C1CC1)C1CCC1", "note": "[Example 155, Cyclobutanecarboxylic acid (3-{5-cyclopropyl-2-[1-(2-morpholin-4-yl-ethyl)-1H-pyrazol-4-ylamino]-pyrimidin-4-ylamino}-propyl)-amide]", "IC50": "< 100"}, {"smiles": "O=C(NCCCNc1nc(Nc2ccc(CN3CCCCC3)nc2)ncc1C1CC1)C1CCC1", "note": "[Example 156, Cyclobutanecarboxylic acid {3-[5-cyclopropyl-2-(6-piperidin-1-ylmethyl-pyridin-3-ylamino)-pyrimidin-4-ylamino]-propyl}-amide]", "IC50": "< 100"}, {"smiles": "O=C(NCCCNc1nc(Nc2ccc(CN3CCCC(F)(F)C3)nc2)ncc1C1CC1)C1CCC1", "note": "[Example 157, Cyclobutanecarboxylic acid (3-{5-cyclopropyl-2-[6-(3,3-difluoro-piperidin-1-ylmethyl)-pyridin-3-ylamino]-pyrimidin-4-ylamino}-propyl)-amide]", "IC50": "< 100"}, {"smiles": "O=C(NCCCNc1nc(Nc2ccc(NCCN3CCOCC3)nc2)ncc1C1CC1)C1CCC1", "note": "[Example 158, Cyclobutanecarboxylic acid (3-{5-cyclopropyl-2-[6-(2-morpholin-4-yl-ethylamino)-pyridin-3-ylamino]-pyrimidin-4-ylamino}-propyl)-amide]", "IC50": "< 100"}, {"smiles": "CN(C)[C@@H]1CCN(Cc2ccc(Nc3ncc(C4CC4)c(NCCCNC(=O)C4CCC4)n3)cn2)C1", "note": "[Example 159, Cyclobutanecarboxylic acid (3-{5-cyclopropyl-2-[6-((R)-3-dimethylamino-pyrrolidin-1-ylmethyl)-pyridin-3-ylamino]-pyrimidin-4-ylamino}-propyl)-amide]", "IC50": "< 100"}, {"smiles": "O=C(NCCCNc1nc(Nc2cnn(CCN3CCCCC3)c2)ncc1C1CC1)C1CCC1", "note": "[Example 160, Cyclobutanecarboxylic acid (3-{5-cyclopropyl-2-[1-(2-piperidin-1-yl-ethyl)-1H-pyrazol-4-ylamino]-pyrimidin-4-ylamino}-propyl)-amide]", "IC50": "< 100"}, {"smiles": "CC(C)n1cc(Nc2ncc(C3CC3)c(NCCCNC(=O)C3CCC3)n2)cn1", "note": "[Example 161, Cyclobutanecarboxylic acid {3-[5-cyclopropyl-2-(1-isopropyl-1H-pyrazol-4-ylamino)-pyrimidin-4-ylamino]-propyl}-amide]", "IC50": "< 100"}, {"smiles": "O=C(C1CCC1)N1CC(CNc2nc(Nc3cccc(F)c3)ncc2C2CC2)C1", "note": "[Example 162, Cyclobutyl-(3-{[5-cyclopropyl-2-(3-fluoro-phenylamino)-pyrimidin-4-ylamino]-methyl}-azetidin-1-yl)-methanone]", "IC50": "100 to 1000"}, {"smiles": "O=C(NCCCNc1nc(Nc2ccc(S(=O)(=O)Nc3ncccn3)cc2)ncc1C1CC1)C1CCC1", "note": "[Example 163, Cyclobutanecarboxylic acid (3-{5-cyclopropyl-2-[4-(pyrimidin-2-ylsulfamoyl)-phenylamino]-pyrimidin-4-ylamino}-propyl)-amide]", "IC50": "< 100"}, {"smiles": "CNC(=O)c1ccc(Nc2ncc(C3CC3)c(NCCCNC(=O)C3CCC3)n2)cc1", "note": "[Example 164, 4-{4-[3-(Cyclobutanecarbonyl-amino)-propylamino]-5-cyclopropyl-pyrimidin-2-ylamino}-N-methyl-benzamide]", "IC50": "< 100"}, {"smiles": "CN1CCN(c2ccc(Nc3ncc(C4CC4)c(NCCCNC(=O)C4CCC4)n3)cc2)CC1", "note": "[Example 165, Cyclobutanecarboxylic acid (3-{5-cyclopropyl-2-[4-(4-methyl-piperazin-1-yl)-phenylamino]-pyrimidin-4-ylamino}-propyl)-amide]", "IC50": "< 100"}, {"smiles": "O=C(NCCCNc1nc(Nc2ccc(N3CCOCC3)cc2)ncc1C1CC1)C1CCC1", "note": "[Example 166, Cyclobutanecarboxylic acid {3-[5-cyclopropyl-2-(4-morpholin-4-yl-phenylamino)-pyrimidin-4-ylamino]-propyl}-amide]", "IC50": "< 100"}, {"smiles": "CN1Cc2cc(Nc3ncc(C4CC4)c(NCCCNC(=O)C4CCC4)n3)ccc2C1=O", "note": "[Example 167, Cyclobutanecarboxylic acid {3-[5-cyclopropyl-2-(2-methyl-1-oxo-2,3-dihydro-1H-isoindol-5-ylamino)-pyrimidin-4-ylamino]-propyl}-amide]", "IC50": "< 100"}, {"smiles": "O=C(NCCCNc1nc(Nc2ccc3c(c2)CN(CCO)C3=O)ncc1C1CC1)C1CCC1", "note": "[Example 168, Cyclobutanecarboxylic acid (3-{5-cyclopropyl-2-[2-(2-hydroxy-ethyl)-1-oxo-2,3-dihydro-1H-isoindol-5-ylamino]-pyrimidin-4-ylamino}propyl)-amide]", "IC50": "< 100"}, {"smiles": "O=C(NCCCNc1nc(Nc2ccc(-n3cncn3)cc2)ncc1C1CC1)C1CCC1", "note": "[Example 169, Cyclobutanecarboxylic acid (3-{5-cyclopropyl-2-[4-(2H-1,2,4-triazol-1-yl)-phenylamino]-pyrimidin-4-ylamino}-propyl)-amide]", "IC50": "< 100"}, {"smiles": "O=C1Cc2cc(Nc3ncc(C4CC4)c(NCCCNC(=O)C4CCC4)n3)ccc2N1", "note": "[Example 170, Cyclobutanecarboxylic acid {3-[5-cyclopropyl-2-(2-oxo-2,3-dihydro-1H-indol-5-ylamino)-pyrimidin-4-ylamino]-propyl}-amide]", "IC50": "< 100"}, {"smiles": "CN1CCC(c2ccc(Nc3ncc(C4CC4)c(NCCCNC(=O)C4CCC4)n3)cc2)CC1", "note": "[Example 171, Cyclobutanecarboxylic acid (3-{5-cyclopropyl-2-[4-(1-methyl-piperidin-4-yl)-phenylamino]-pyrimidin-4-ylamino}-propyl)-amide]", "IC50": "< 100"}, {"smiles": "CN(C)CCc1ccc(Nc2ncc(C3CC3)c(NCCCNC(=O)C3CCC3)n2)cc1", "note": "[Example 172, Cyclobutanecarboxylic acid (3-{5-cyclopropyl-2-[4-(2-dimethylamino-ethyl)-phenylamino]-pyrimidin-4-ylamino}-propyl)-amide]", "IC50": "< 100"}, {"smiles": "CN(C)Cc1ccc(Nc2ncc(C3CC3)c(NCCCNC(=O)C3CCC3)n2)cc1", "note": "[Example 173, Cyclobutanecarboxylic acid (3-{5-cyclopropyl-2-[4-(2-dimethylamino-methyl)-phenylamino]-pyrimidin-4-ylamino}-propyl)-amide]", "IC50": "< 100"}]}]}
